How the values were obtained:
[1] = tested on: P450 2D6; details: cited from earlier work
[2] = tested on: P450 1A2; details: cited from earlier work
[3] = Clinical interaction, theophylline with tacrine; assay type: in vivo, human; details: single 158-mg theophylline with repeated 20-mg tacrine
Description: M. E. Campbell, D. M. Grant, T. Inaba, and W. Kalow, "Biotransformation of Caffeine, Paraxanthine, Theophylline, and Theobromine by polycyclic Aromatic Hydrocarbon-Inducible Cytochrome(s) P-450 in Human Liver Microsomes", DRUG METAB. DISPOS. Vol. 15, pp. 237-249 (1987). Therefore, a potential explanation for the theophylline-tacrine clinical interaction is competition for the same P450 1A2 enzymes.

Structure (SMILES): C=C[C@H]1C[N@@]2CC[C@H]1C[C@@H]2[C@@H](O)c1ccnc2ccc(OC)cc12 [Quinidine]
- P450 2D6 inhibition [1]: inhibitor of P450 2D6

Structure (SMILES): Cn1c(=O)c2[nH]cnc2n(C)c1=O [Theophylline]
- major route of clearance [2]: metabolism by P450 1A2
- increase in theophylline elimination half-life [3]: two-fold
